# Measured values from patent publication US20220265759A1, “COMPOSITION AND METHOD FOR PROMOTING WOUND HEALING” (THE BOARD OF TRUSTEES OF THE UNIVERSITY OF ILLIOIS, priority 2019, published 2022).
# Peptide text beside a SMILES is read from it. * marks the point of attachment. Myristoyl = CCCCCCCCCCCCCC(=O)*
# Tests used:
# CaM-eNOS binding = target: T1, CaM-eNOS binding (Homo sapiens, UniProt P0DP23); test: Co-IP of eNOS-CaM binding in endothelial cells; format: cell-based; conditions: pretreatment, 5-minute treatment with 500 ng/ml CCL28
# T1 construct: endogenous in cells
# Source text: Co-IP Experiments, cells or mouse wounds were collected after treatment, and lysed in 2% ODG in Tris buffer. The homogenates were further prepared for Co-IP experiments as described in the art (Chen, et al. (2018) Mol. Biol. Cell 29(10):1190-1202; Chen, et al. (2020) FASEB J. 34(4):5838-5850; Chen, et al. (2015) Ann. Rheum. Dis. 74:1898-1906).
# It has been reported that calmodulin (CaM) binding to bovine eNOS occurs at residues 493-[…]-512 (SEQ ID NO:2) (Venema, et al. (1996) J. Biol. Chem. 271(11):6435-6440; Venema, et al. (1995) J. Biol. Chem. 270:14705-14711). Therefore, using Co-IP, it was assessed whether Myr-CBD7 affects eNOS-CaM binding.
# [1] = system: CD31, CCR10, CCL28, IL-6, IL-4, HGF mRNA; test: Real-time RT-PCR of mRNA levels in WT mouse dermal wounds; format: in vivo, WT C57BL/6 mice
# Protocol: (§1) Real-Time RT-PCR. Total cellular RNA from mouse skin wounds was extracted using nucleic acid extraction reagent sold under the tradename TRIZOL®. mRNA expression of different genes was examined by real-time RT-PCR that employed a SYBR Green PCR mix. Relative gene expression was determined by the ΔΔCt method based on GAPDH levels as described previously (Chen, et al. (2013) J. Immunol. 190:5256-5266).
# [2] = system: full thickness excisional wounds on db/db mouse dorsal skin; test: Excisional dorsal skin wound healing in diabetic db/db mice; format: in vivo
# Protocol: Mouse Healing Models. All animal procedures were performed in accordance with the Guide for the Care and Use of Laboratory Animals (National Institutes of Health). WT C57BL/6, eNOS^−/− and db/db mice were purchased from Jackson Laboratory (Bar Harbor, Me.). CCR10^−/− mice have been described in the art, see, e.g., Jin, et al. (2011) J. Immunol. 185(10):5723-31. Four 5-mm or two 8-mm full thickness excisional wounds were made on the dorsal skin of mice (male, aged at 9 weeks) using a standard skin biopsy punch under ketamine (100 mg/kg) and xylazine (5 mg/kg) anesthesia. Scrambled myristoylated (Myr−) control or Myr-CBD7 peptides were applied topically to wounds in F-127 gel sold under the tradename PLURONIC® after wounding (Mirza, et al. (2009) Am. J. Pathol. 175:2454-2462). Wound size was determined as previously described (Chen, et al. (2020) FASEB J. 34(4):5838-5850; Zhao, et al. (2016) PLoS ONE. 11:e0146451) and wounds were collected at indicated times for indicated measurements.
# Two 8 mm full thickness excisional wounds were made on the dorsal skin of diabetic db/db mice and then 50 μl of 50 μM Myr-CBD7 peptide was topically applied. […] Reduced CCR10-eNOS interaction was also observed in the mouse wounds following treatment with Myr-CBD7 peptide as determined by Co-IP (FIG. 6).
# [3] = system: CCL28, IL-6, TNF-α, IL-1β, CCR10, VEGF, IL-13, IL-4, eNOS, CD31, Flk-1, VE-cadherin; test: ELISA and real-time RT-PCR of inflammatory factors and EC markers in db/db mouse wounds; format: in vivo, db/db mice
# Protocol: as §1
# ELISA Measurement. Mouse skin wounds were collected, lysed, and prepared for ELISA measurement of mouse CCL28 and IL-6 according to manufacturer's instructions.
# It was investigated whether topical application of Myr-CBD7 affects these factors in db/db mice known to play important roles in the healing processes. Mouse wounds on day 3 (Inflammation Phase) and day 12 (Proliferation Phase) were collected and inflammatory factor levels were determined by ELISA and real-time RT-PCR.
# On day 12 after Myr-CBD7 treatment, elevated levels of eNOS/NO were observed as well as enhanced angiogenesis in mouse wounds. Furthermore, Myr-CBD7 treatment lead to elevated levels of VEGF, anti-inflammatory cytokines IL-13 and IL-4 (M2 markers), as well as EC markers eNOS, CD31, Flk-1 and VE-cadherin in mouse wounds.
# wound blood perfusion = test: Blood perfusion by laser speckle contrast analysis (LASCA) in db/db mouse wounds; format: in vivo, db/db mice; conditions: day 7, 50 μM, vs control peptide
# Protocol: Blood Perfusion Measurement. Immediately after creation of dorsal skin wounds on db/db mice using an 8 mm punch, 50 μl of 50 μM Myr-scrambled control or Myr-CBD7 peptide in F-127 gel sold under the tradename PLURONIC® was applied topically to the wounds on db/db mice. Blood perfusion was analyzed based on motion detected below the surface of the wound using a near infrared laser based PeriCam PSI laser speckle contrast analysis system (LASCA) as described previously (Elgharably, et al. (2013) Wound Repair Regen. 21(3):473-481; Das, et al. (2016) J. Immunol. 196(12):5089-5100).
# To further investigate if Myr-CBD7 promotes healing of dorsal skin wounds on db/db mice by stimulating angiogenesis, blood perfusion as detected by laser speckle contrast analysis (LASCA), was monitored.
# HEK/eNOS cells = test: NO production in HEK/eNOS cells; format: cell-based, human; conditions: HEK/eNOS cells with/without co-expression of CCR10-GFP, pretreatment, compared with control peptide
smiles,measurement,setting,value
"CCCCCCCCCCCCCC(=O)N[C@@H](CCCCN)C(=O)N[C@H](C(=O)N[C@@H](CO)C(=O)N[C@@H](C)C(=O)N[C@@H](CO)C(=O)N[C@@H](CC(C)C)C(=O)N[C@@H](CCSC)C(=O)O)[C@@H](C)CC [Myr-CBD7, myr-KISASLM] (Myristoyl-KISASLM-OH)",CaM-eNOS binding (Co-IP),CaM-eNOS binding,no effect
same,CCL28 mRNA level,[1]; wounds day 7,reduction
same,CCR10 mRNA level,[1]; wounds day 7,did not change
same,CD31 mRNA level,[1]; wounds day 7,elevated
same,IL-4 mRNA level,[1]; wounds day 7,enhancing
same,IL-6 mRNA level,[1]; wounds day 7,reduction
same,increase of hepatocyte growth factor (HGF) mRNA level,"[1]; wounds day 7, non-significant",35%
same,decrease of wound healing time,"[2]; 50 μl of 50 μM topical, vs control peptide",4 days
same,reduction of wound size,"[2]; day 4, compared to control peptide",19%
same,reduction of wound size,"[2]; day 12, compared to control peptide",46%
same,wound size (FIG. 5),"[2]; from day 4, 30 μl (50 μM) topical, compared with control construct",reduces wound size significantly
same,level of CCR10,"[3]; day 3, compared to control peptide",reduced
same,mRNA level of IL-6,[3]; day 3 wounds,reduced
same,protein level of CCL28,"[3]; day 3 wounds, ELISA",significantly reduced
same,protein level of IL-6,"[3]; day 3 wounds, ELISA",significantly reduced
same,protein level of TNF-α,"[3]; day 3 wounds, ELISA",significantly reduced
same,level of EC marker CD31,[3]; day 12 wounds,elevated
same,level of EC marker Flk-1,[3]; day 12 wounds,elevated
same,level of EC marker VE-cadherin,[3]; day 12 wounds,elevated
same,level of EC marker eNOS,[3]; day 12 wounds,elevated
same,level of IL-4,[3]; day 12 wounds,elevated
same,level of IL-13,[3]; day 12 wounds,elevated
same,level of VEGF,[3]; day 12 wounds,elevated
same,blood perfusion,wound blood perfusion,significantly increased
same,NO production,HEK/eNOS cells,elevated significantly
